Test results reported in patent publication US5849900A, “Inhibition of viruses by antisense oligomers capable of binding to polypurine rich tract of single-stranded RNA or RNA-DNA hybrids” (Max-Planck-Gesellschaft zur Forderung der Wissenschafter …, priority 1995, dated 1998).

Tests used:
[1] = tested on: pKJ2 RNA hybridized with 40-mer deoxyribonucleotide complementary to the PPT region; RNase H; test: RNase H cleavage inhibition on pKJ2 RNA-DNA hybrid, phosphoimager quantitation (Example 3); format: biochemical, HIV-1; conditions: for IC50: range of concentrations, FIG. 4, phosphoimager, read-out: concentration that inhibited the RNase H by 50%
Protocol: In vitro transcribed, 5'end-labeled pKJ2 RNA of 134 nucleotides in length was hybridized with a 10-fold excess of a 40-mer deoxyribonucleotide complementary to the PPT region. Volkmann, et al., Biochimie, 1993, 75, 71-78. Hybridizations were carried out in 25 mM Tris-acetate buffer (pH 6.8) containing 50 mM NaCl, 10 mM β-mercapotoethanol and 0.4 mM spermine hydrochloride. The mixture was incubated for 3 minutes at 90° C., then cooled slowly to room temperature. For triplex-formation, 1 pmol hybrid substrate was incubated with either 10 or 100 pmol oligodeoxynucleotide overnight at 37° C. Finally, each sample was treated with 12 ng enzyme in 10 microliters RNase H-standard buffer (see Example 2) for 30 minutes at 37° C. RNase H cleavage reaction was stopped by incubation at 96° C. for 2 minutes. Samples were ethanol-precipitated and analyzed on 10% polyacrylamide-TEE-urea gel. The gel was visualized by autoradiography and analyzed with a phosphoimager (Molecular Dynamics). GT purine-pyrimidine mixed DNA oligonucleotides and RNA oligonucleotides were analyzed and compared with a 25-mer pyrimidine sequence in parallel (Seq ID No: 3) and antiparallel (Seq ID No: 42) orientation. To quantitate the effects of the oligonucleotides, the amounts of uncut RNA were determined. The oligonucleotides tested are listed below:
Oligonucleotides GT1, GT2, and GU1 were tested further at a range of concentrations. The concentrations of the remaining materials were as previously. The quantitative plots of phosphoimager results for GT1, GT2, and GU1 are depicted in FIG. 4. GT1 inhibited the RNase H by 50% at 5.0 μM, and GU1 inhibited 50% at 0.5 μM.

[2] = tested on: PPT of HIV-1 viral RNA (pKJ2 RNA); test: cDNA elongation / premature termination of cDNA synthesis on single-stranded viral RNA (Example 1); format: biochemical; conditions: antisense oligonucleotide hybridized with single-stranded HIV-1 RNA; HIV-1 RT
Protocol: HIV-1 viral RNA was transcribed in vitro from a construct containing a T7 promoter along with the PPT, which consists of the sequence: AAAAGAAAAGGGGGGA (SEQ ID NO: 1) or […] (SEQ ID NO: 2) when extended within the 3' LTR and 2 non-purines are included. The viral RNA, corresponding to pKJ2, consisted of 134 nucleotides. A ^32 P end-labeled antisense oligonucleotide was hybridized with the RNA. The cDNA reaction products were analyzed on 10% polyacrylamide TEE-urea gels. Details of the procedure are as follows:
To the standard reaction mixture described in Example 2 below were added a 125 μM quantity of one of the ddNTPs and each of the other three dNTPS and 4 units of HIV-1RT. The reactions were started by the addition of approximately 3 pmol of hybrid RNA (low specific activity) and treated as described above. To check for cDNA elongation, the same test was carried out, except with unlabeled in vitro transcribed RNA hybridized to a 10:1 mixture of unlabeled to labeled oligonucleotide. Aliquots were analyzed by electrophoresis on 10% TEE-urea-polyacrylamide gels.
The RNase H reaction was carried out in a total volume of 500 μL in RNase H buffer containing 1000 units of RNasin and 25 units of HIV-1RT/RNase H. After the reaction was started by the addition of 8 pmol of an unlabeled RNA-DNA oligonucleotide hybrid, the sample was divided into five aliquots of 100 μL and incubated for 30 minutes at 37° C., and the reaction was stopped at 95° C. for 5 minutes. The samples were placed on ice and to each was added 10 units of DNase I to remove the DNA oligonucleotide. After 10 minutes, the samples were incubated further at 37° C. for 10 minutes. The reactions were stopped at 95° C. for 10 minutes. […] Aliquots were analyzed by electrophoresis on an 8% TBE-urea-polyacrylamide gel together with dideoxy sequencing ladders generated with the same ^32 P-end-labeled DNA oligonucleotide primer on a single-stranded M13 DNA template harboring the corresponding DNA fragment. […]

[3] = tested on: PPT region of single-stranded RNA; RNase H; test: Protection of single-stranded RNA from RNase H cleavage by chimeric oligonucleotides 5'-A-B-C-3' (Example 4); format: biochemical, HIV-1; conditions: for oligonucleotide concentration that inhibited cleavage to 50%: 50-fold molar excess of the oligonucleotide over the template
Protocol: Chimeric oligonucleotides of the basic formula 5'-A-B-C-3' were tested with single-stranded RNA in a two-strand system. […] (Personal communication.) Average protection from cleavage was about 50%.
Protection from RNase H was monitored as above. Specifically, protection was monitored in vitro using RNA which was radioactively labeled at its 5'-end. Cleavage was analyzed on a sequencing gel. Cleavage within the PPT region of the RNA leads to a band of about 80 nucleotides. Protection from cleavage results in an uncleavaged full-length RNA. The amount of cleaved versus uncleaved RNA was monitored by phosphoimager.

RT = test: Inhibition of the RT by TFO-A variants; format: biochemical, HIV-1
Description: Through these studies, it was learned that the two bulges are essential for protection of RNA and that the overhanging 5'- and 3'-ends can be shortened. Variances numbered 5037 (SEQ ID NO:26) and 5074 (SEQ ID NO:21) inhibited cleavage to 50% at 50-fold molar excess of the oligonucleotide over the template, i.e., about one μM oligonucleotide.

[4] = 1 pmol hybrid with 10 or 100 pmol oligonucleotide

CCCTTCCAGTCCCCCCTTTTCTTTT (chemistry not given here) [PY2]
inhibition of RNase H (degree, in words) [1, 4]: lowest degree of inhibition

AGTCCCCCCTTTTCTTTTAA (chemistry not given here) [SEQ ID NO: 10, antisense 20-mer covering the PPT]
blocking of cDNA synthesis (inhibition of cDNA elongation) [2]: 100%

UUUUGUUUUGGGGGGUGUGGUUGGG (chemistry not given here) [GU1, the RNA oligonucleotide tested]
inhibition of RNase H [1, 4]: ~100%
IC50 [1]: 500 nM

TGAATTAGCCCTTCCAGTCCCCCCTTTTCTTTTAAAAAGT (chemistry not given here) [SEQ ID NO: 9, antisense 40-mer covering the PPT]
blocking of cDNA synthesis (inhibition of cDNA elongation) [2]: 100%

AGGGGATTTGGTTGGGTTTTCCCTTCCAGTCCCCC (chemistry not given here) [compound 5074, TFO-A variant]
oligonucleotide concentration that inhibited cleavage to 50% [3]: about one
concentration at which ninety-five percent inhibition of the RT occurred (RT): about 25 μM

TFO F1: TFO F derivative that formed a pseudocircle due to a complementary tail (GCATGCCCTTTTCTTTTCCCCCCTTTTTTCCCCCCTTTTCTTTTCCGCATGC; forms pseudocircle through self-complementary tail, further chemistry not given here)
inhibition of RNase H [3]: about 80%

CCGCCCAGGCCACGCCTCCC (chemistry not given here) [SEQ ID NO: 11, control antisense 20-mer outside the PPT region, reference compound]
blocking of cDNA synthesis (inhibition of cDNA elongation) [2]: 20-50%

TTTTGTTTTGGGGGGTGTGGTTGGG (chemistry not given here) [TFO 1', 25-mer GT triplex-forming oligonucleotide]
IC50 [1]: 5000 nM

5037: TFO-A variant, sequence shown only as drawing in Table 6 (TTTTCTTTTGGGGGGTTTGGTTGGGTTTTCCCTTCCAGTCCCCCCTTTTCTTTT; chemistry not given here) [compound 5037]
oligonucleotide concentration that inhibited cleavage to 50% [3]: about one
concentration at which ninety-five percent inhibition of the RT occurred (RT): about 25 μM

TTTTCTTTTGGGGGGTTTGGTTGGGTTTTCCCTTCCAGTCCCCCCTTTTCTTTT (chemistry not given here) [TFO A, 54-mer, partially self-complementary, hairpin-type stem-looped structure]
inhibition of cleavage (in words) ([3]; at concentrations less than one nanomolar, in vitro): completely inhibited cleavage

Us Us Us Us Cs Us Us Us Us Cs Cs Cs Cs Cs Cs Us TTTTTCCCCC TTTTCTTTT (UUUUCUUUUCCCCCCUTTTTTCCCCCCTTTTCTTTT; phosphorothioate backbone, chemistry not fully specified) [Rs RD]
protection from cleavage ([3]; at equimolar concentration): One hundred percent
inhibition (protection from RNase H) ([3]; at the same concentration as the phosphodiester): 100%
